ChEMBL document CHEMBL4152345, “Discovery of Novel 1,3,8-Triazaspiro[4.5]decane Derivatives That Target the c Subunit of F1/FO-Adenosine Triphosphate (ATP) Synthase for the Treatment of Reperfusion Damage in Myocardial Infarction” (J Med Chem, 2018)
The source made the active and inactive calls. The rule behind the calls is not given here.

Tests used:
HeLa [1] = test: Inhibition of F1F0-ATP synthase subunit C in human HeLa cells assessed as reduction of ionomycin-induced Ca2+ mediated mPTP opening at 1 uM preincubated for 30 secs followed by ionomycin addition by calcein-cobalt based assay relative to control; type: cell-based
HeLa [2] = test: Effect on network volume of mitochondria in human HeLa cells after 24 hrs by calcin staining based microscopic analysis; type: ADME, cell-based
Mus musculus = species: Mus musculus; test: Inhibition of Inhibition of F1F0-ATP synthase subunit C in SV129 mouse liver mitochondria assessed as reduction of Ca2+ induced mPTP opening by measuring reduction in mitochondrial swelling at 1 uM measured after 10 mins relative to control
HeLa [3] = test: Cytotoxicity against human HeLa cells assessed as reduction in cell viability at 1 to 10 uM after 24 to 48 hrs by MTT assay; type: cell-based
HeLa [4] = test: Reduction in mitochondrial ATP content in human HeLa cells expressing mitochondrially targeted Photinus pyralis luciferase at 1 uM in presence of 100 um histamine by luciferin-luciferase assay; type: ADME, cell-based
HeLa [5] = test: Effect on number of mitochondria in human HeLa cells after 24 hrs by mtCherry staining based microscopic analysis; type: ADME, cell-based
HeLa [6] = test: Inhibition of F1F0-ATP synthase subunit C in human HeLa cells assessed as reduction in apoptosis by TUNEL assay; type: cell-based
HeLa [7] = test: Cytotoxicity against human HeLa cells assessed as reduction in cell viability at 1 to 10 uM after 72 hrs by MTT assay; type: cell-based
HeLa [8] = test: Inhibition of F1F0-ATP synthase subunit C in human HeLa cells assessed as reduction of cytC release at 1 uM after 5 mins by immunoblot analysis; type: cell-based
HeLa [9] = test: Effect on mitochondrial calcium uptake in human HeLa cells after 24 hrs by aequorin luminometric analysis; type: ADME, cell-based
HeLa [10] = test: Reduction in mitochondrial ATP content in human HeLa cells expressing mitochondrially targeted Photinus pyralis luciferase at 1 uM by luciferin-luciferase assay; type: ADME, cell-based
HeLa [11] = test: Effect on basal mitochondrial membrane potential in human HeLa cells by TMRM dye based fluorescence assay; type: ADME, cell-based
HeLa [12] = test: Effect on mitochondrial morphology in human HeLa cells after 24 hrs by mtCherry staining based microscopic analysis; type: ADME, cell-based
[13] = Drug uptake in human HeLa cells endoplasmic reticulam fraction by HPLC-HRMS analysis; type: ADME, subcellular
[14] = Drug uptake in human HeLa cells mitochondrial fraction by HPLC-HRMS analysis; type: ADME, mitochondria, Mitochondria
[15] = Drug uptake in human HeLa cells cytosolic fraction by HPLC-HRMS analysis; type: ADME, subcellular; settings: cytosol
HeLa [16] = test: Inhibition of F1F0-ATP synthase subunit C in human HeLa cells assessed as enzyme dimerization by measuring mitochondrial permeability transition at 1 uM by PLA based assay; type: cell-based
HeLa [17] = test: Binding affinity of F1F0-ATP synthase c subunit in human HeLa cells at 60 to 80 degC after 30 mins by cellular thermal shift assay; type: cell-based
[18] = Drug uptake in human HeLa cells mitochondrial fraction assessed as retention time by HPLC-HRMS analysis; type: ADME, mitochondria, Mitochondria
Homo sapiens = species: Homo sapiens; test: Binding affinity of F1F0-ATP synthase c subunit in isolated mitochondria of human HeLa cells after 30 mins by UPLC-XEVO-TQD analysis
[19] = molecular target: ATP synthase F(1) complex subunit alpha, mitochondrial (Homo sapiens) (UniProt P25705); test: Binding affinity of ATP5A in human HeLa cells assessed as melting temperature after 30 mins by cellular thermal shift assay; type: cell-based
Heart [20] = test: Cardioprotective activity in Langendorff perfused Wistar rat heart model of ischemia-reperfusion injury model assessed as reduction of end diastolic pressure at 10 uM dosed during first 10 mins reflow; type: functional; parameters: scale not given: the % may be the effect or the level left
Heart [21] = test: Cardioprotective activity in Langendorff perfused Wistar rat heart model of ischemia-reperfusion injury model assessed as reduction of coronary perfusion pressure at 10 uM dosed during first 10 mins reflow; type: functional; parameters: scale not given: the % may be the effect or the level left
Heart [22] = test: Cardioprotective activity in Langendorff perfused Wistar rat heart model of ischemia-reperfusion injury model assessed as increase left ventricular developed pressure at 10 uM dosed during first 10 mins reflow; type: functional
Heart [23] = test: Cardioprotective activity in Langendorff perfused Wistar rat heart model of ischemia-reperfusion injury model assessed as reduction of apoptosis at 10 uM dosed during first 10 mins reflow by TUNEL assay; type: functional

Sequence of ATP synthase F(1) complex subunit alpha, mitochondrial (Homo sapiens) (P25705 whole entry, the tested form may be a part, one chain of several): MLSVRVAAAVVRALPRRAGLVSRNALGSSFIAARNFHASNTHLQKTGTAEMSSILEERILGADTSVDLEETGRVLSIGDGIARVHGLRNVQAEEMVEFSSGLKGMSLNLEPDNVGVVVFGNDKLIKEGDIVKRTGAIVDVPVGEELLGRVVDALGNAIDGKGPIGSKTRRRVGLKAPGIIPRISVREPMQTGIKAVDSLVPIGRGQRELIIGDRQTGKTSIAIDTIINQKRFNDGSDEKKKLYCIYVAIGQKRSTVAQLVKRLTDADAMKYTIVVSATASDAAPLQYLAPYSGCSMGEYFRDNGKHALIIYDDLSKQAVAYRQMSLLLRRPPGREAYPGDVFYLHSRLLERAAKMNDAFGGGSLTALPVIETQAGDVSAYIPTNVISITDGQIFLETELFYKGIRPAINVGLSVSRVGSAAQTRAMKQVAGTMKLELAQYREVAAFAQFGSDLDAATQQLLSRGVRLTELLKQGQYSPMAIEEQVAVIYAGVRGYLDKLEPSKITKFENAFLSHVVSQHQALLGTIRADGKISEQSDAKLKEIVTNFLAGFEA

O=C(c1ccccc1)N1CCC2(CC1)C(=O)NCN2c1ccccc1
inhibition (HeLa [1]): 43.9%

COc1ccc(N2C=NC(=O)C23CCN(Cc2ccccc2)CC3)cc1
inhibition (HeLa [1]): 43.8%

O=C1N=CN(c2ccc(Cl)cc2)C12CCN(Cc1ccccc1)CC2
Activity (HeLa [2]): Non-Toxic | inhibition (Mus musculus): Active | Activity (HeLa [3]): Non-Toxic | Activity (HeLa [4]): Non-Toxic | Activity (HeLa [5]): Non-Toxic | inhibition (HeLa [1]): 57.4% | inhibition (HeLa [6]): Active | Activity (HeLa [7]): Toxic | inhibition (HeLa [8]): Active | Activity (HeLa [9]): Non-Toxic | Activity (HeLa [10]): Toxic | Activity (HeLa [11]): Non-Toxic | Activity (HeLa [12]): Non-Toxic

CCC1/C=C/C=C/C[C@H](C)[C@@H](O)[C@](C)(O)C(=O)[C@@H](C)[C@H](O)[C@@H](C)C(=O)[C@H](C)[C@@H](O)[C@H](C)/C=C/C(=O)OC2[C@@H](C)C(CC1)OC1(CC[C@@H](C)C(C[C@H](C)O)O1)[C@@H]2C (stereo not given in full)
Drug uptake [13]: Active | Drug uptake [14]: Active | Drug uptake [15]: Active

CC(C)c1ccc(N2C=NC(=O)C23CCN(Cc2ccccc2)CC3)cc1
inhibition (HeLa [1]): 6.5%

CS(=O)(=O)N1CCC2(CC1)C(=O)NCN2c1ccccc1
inhibition (HeLa [1]): 47.5%

O=C1NCN(c2ccc(F)cc2)C12CCN(S(=O)(=O)c1ccc(F)cc1)CC2
inhibition (HeLa [1]): 9.1%

O=C1NCN(c2ccc(F)cc2)C12CCN(S(=O)(=O)c1ccc(Cl)s1)CC2
inhibition (HeLa [1]): 12.6%

O=C(NC1CCCCC1)N1CCC2(CC1)C(=O)NCN2c1ccccc1
inhibition (HeLa [1]): 51.3%

O=C1N=CN(c2ccc(F)cc2)C12CCN(Cc1ccccc1)CC2
inhibition (HeLa [1]): 28.8%

Cc1ccc(N2C=NC(=O)C23CCN(Cc2ccccc2)CC3)cc1
inhibition (HeLa [1]): 18.7%

O=C1NCN(c2cccc(C(F)(F)F)c2)C12CCN(Cc1ccccc1)CC2
Activity (HeLa [2]): Non-Toxic | inhibition (Mus musculus): Active | Activity (HeLa [3]): Non-Toxic | Activity (HeLa [4]): Non-Toxic | Activity (HeLa [5]): Non-Toxic | inhibition (HeLa [1]): 65.5% | inhibition (HeLa [6]): Active | Activity (HeLa [7]): Toxic | inhibition (HeLa [8]): Active | Activity (HeLa [9]): Non-Toxic | Activity (HeLa [10]): Non-Toxic | Activity (HeLa [11]): Non-Toxic | inhibition (HeLa [16]): Active | Activity (HeLa [12]): Non-Toxic

O=C1NCN(c2ccc(F)cc2)C12CCN(Cc1ccccc1)CC2
inhibition (HeLa [1]): 42.9%

O=C1NCN(c2ccccc2)C12CCN(Cc1ccccc1)CC2
inhibition (HeLa [1]): 36.8%

CC(=O)N1CCC2(CC1)C(=O)NCN2c1ccccc1
inhibition (HeLa [1]): 47.9%

CC(C)c1ccc(N2CNC(=O)C23CCN(Cc2ccccc2)CC3)cc1
inhibition (HeLa [1]): 20%

O=C1NCN(c2ccccc2)C12CCN(S(=O)(=O)c1ccc(F)cc1)CC2
inhibition (HeLa [1]): 45.5%

Cc1ccc(S(=O)(=O)N2CCC3(CC2)C(=O)NCN3c2ccccc2)cc1
inhibition (Mus musculus): Active | Activity (HeLa [4]): Toxic | Activity (HeLa [17]): Active | inhibition (HeLa [1]): 30.7 to 50% | Retention_time [18]: 8.2 min | Activity (Homo sapiens): Active | Activity (HeLa [10]): Toxic | Drug uptake [13]: Not Active | Drug uptake [14]: Active | Activity [19]: inactive | Drug uptake [15]: Not Active

O=C1NCN(c2ccccc2)C12CCN(S(=O)(=O)c1ccc(Cl)s1)CC2
Activity (HeLa [2]): Non-Toxic | inhibition (Mus musculus): Active | Activity (HeLa [3]): Non-Toxic | Activity (HeLa [4]): Non-Toxic | Activity (HeLa [5]): Non-Toxic | Activity (Heart [20]): 72% | Activity (Heart [21]): 17.5% | inhibition (HeLa [1]): 66.8% | inhibition (HeLa [6]): Active | Activity (HeLa [7]): Toxic | inhibition (HeLa [8]): Active | Activity (HeLa [9]): Non-Toxic | Activity (HeLa [10]): Non-Toxic | Activity (HeLa [11]): Non-Toxic | Activity (Heart [22]): 36.4% | Activity (Heart [23]): Active | inhibition (HeLa [16]): Active | Activity (HeLa [12]): Non-Toxic

O=C1NCN(c2ccc(Cl)cc2)C12CCN(Cc1ccccc1)CC2
inhibition (HeLa [1]): 51.4%

COc1ccc(N2CNC(=O)C23CCN(Cc2ccccc2)CC3)cc1
inhibition (HeLa [1]): 26.2%

Cc1ccc(N2CNC(=O)C23CCN(Cc2ccccc2)CC3)cc1
inhibition (HeLa [1]): 18.1%

O=C1NCN(c2ccccc2)C12CCN(C(=S)NC1CCCCC1)CC2
inhibition (HeLa [1]): 33.6%

O=C(Nc1ccccc1)N1CCC2(CC1)C(=O)NCN2c1ccccc1
inhibition (HeLa [1]): inactive

O=C1N=CN(c2cccc(C(F)(F)F)c2)C12CCN(Cc1ccccc1)CC2
inhibition (HeLa [1]): 32.1%

O=C1N=CN(c2ccccc2)C12CCN(Cc1ccccc1)CC2
inhibition (HeLa [1]): 41.4%
